Measured values from ChEMBL document CHEMBL3044617, “N-[2(3-Carboxyl-9-benzyl-carboline-1-yl)ethyl-1-yl]-amino acids: correlation of spectral property with in vivo anti-tumor activity” (2012).
The source made the active and inactive calls. The calls are words filed in the database; no cut-off is given here.

Legend:
DNA [1] = experiment: Binding affinity to Bos taurus (calf) thymus DNA assessed as change melting temperature at 20 uM; type: nucleic-acid assay
DNA [2] = experiment: Binding affinity to Bos taurus (calf) thymus DNA assessed as change in DNA viscosity; type: nucleic-acid assay
DNA [3] = experiment: Binding affinity to Bos taurus (calf) thymus DNA assessed as bathochromic shift at 0.5 uM by fluorescence quenching assay; type: nucleic-acid assay
DNA [4] = experiment: Binding affinity to Bos taurus (calf) thymus DNA assessed as hypochromic effect at 20 uM by UV spectra analysis; type: nucleic-acid assay
DNA [5] = experiment: Binding affinity to Bos taurus (calf) thymus DNA assessed as decrease in fluorescence intensity at 0.5 uM by fluorescence quenching assay; type: nucleic-acid assay; design: scale not given: the % may be the effect or the level left
CCRF S-180 = experiment: Antitumor activity against Mus musculus (mouse) S180 cells xenografted in ICR Mus musculus (mouse) assessed as tumor growth inhibition at 89 umol/kg, ip qd for 7 days measured after 24 hr of last dose relative to control; type: functional; settings: CCRF S-180, ip, read-out: TGI
DNA [6] = experiment: Binding affinity to Bos taurus (calf) thymus DNA assessed as melting temperature at 20 uM (reference value: 60.3 degC); type: nucleic-acid assay
DNA [7] = experiment: Binding affinity to Bos taurus (calf) thymus DNA assessed as negative band intensity at 100 uM after 24 hr by CD spectra analysis (reference value: -15209 +/- 245 deg cm2/dmol'-1); type: nucleic-acid assay
DNA [8] = experiment: Binding affinity to Bos taurus (calf) thymus DNA assessed as positive band intensity at 100 uM after 24 hr by CD spectra analysis (reference value: 21429 +/- 276 deg cm2/dmol'-1); type: nucleic-acid assay
DNA [9] = experiment: Binding affinity to Bos taurus (calf) thymus DNA assessed as hypsochromic shift at 20 uM by UV spectra analysis; type: nucleic-acid assay

Row | ΔTm (DNA [1]) | Activity (DNA [2]) | Activity (DNA [3]) | Activity (DNA [4]) | Activity (DNA [5]) | Tm (DNA [6]) | molecular ellipticity (DNA [7]) | molecular ellipticity (DNA [8]) | Activity (DNA [9]) | Structure (SMILES) | inhibition in vivo at 89 µmol/kg (CCRF S-180)
1 | 4.9 °C | Active | 2.2 nm | 0% | 32.6% | 65.4 °C | -5800 deg.cm2/dmol | 17400 deg.cm2/dmol | 0 nm | C[C@@H](O)[C@H](NCCc1nc(C(=O)O)cc2c3ccccc3n(Cc3ccccc3)c12)C(=O)O | -29.1%
2 | 12.9 °C | Active | 8.2 nm | 32% | 63.9% | 73.2 °C | -36300 deg.cm2/dmol | 2750 deg.cm2/dmol | 3.4 nm | O=C(O)C[C@H](NCCc1nc(C(=O)O)cc2c3ccccc3n(Cc3ccccc3)c12)C(=O)O | 34.7%
3 | 11.9 °C | Active | 4.4 nm | 30.5% | 58.7% | 72.2 °C | -1080 deg.cm2/dmol | 28900 deg.cm2/dmol | 4.8 nm | O=C(O)c1cc2c3ccccc3n(Cc3ccccc3)c2c(CCN[C@@H](Cc2ccc(O)cc2)C(=O)O)n1 | 48.6%
4 | 10.8 °C | Active | 4.6 nm | 29.6% | 42.4% | 71.1 °C | -23700 deg.cm2/dmol | 10100 deg.cm2/dmol | 4.8 nm | O=C(O)c1cc2c3ccccc3n(Cc3ccccc3)c2c(CCN[C@@H](CO)C(=O)O)n1 | 35.3%
5 | – | – | – | – | – | – | – | – | – | Nc1ccn([C@@H]2O[C@H](CO)[C@@H](O)[C@@H]2O)c(=O)n1 [CYTARABINE] | 54.8%
